Reference: patent US8193239B2, “Substituted 1-cyanoethylheterocyclylcarboxamide compounds” (AstraZeneca AB, priority 2009, dated 2012)
Structures can show the parent of a compound that is named as a salt.

Biological target: Recombinant Human (rh) DPP1 (Homo sapiens, UniProt P53634)
Assay: Fluorescence Assay for Recombinant Human (rh) DPP1
Type: biochemical
Conditions: rhDPP1, substrate H-Gly-Arg-AMC, pH5.0, 22° C., pre-incubated 30-60 min; read-out: DPP1 activity, pIC50 (converted)
Procedure: Fluorescence Assay for Recombinant Human (rh) DPP1
The activity of DPP1 was determined by measuring the enzymatic release of aminomethyl coumarin (AMC) from the peptide substrate (H-Gly-Arg-AMC), which leads to an increase in fluorescence intensity at λex=350 nm and λem=450 nm. The assay was carried out in black 384 well plates in a final volume of 50 μl at 22° C. The assay conditions contained the following: 25 mM piperazine buffer pH5.0; 50 mM NaCl, 5 mM DTT; 0.01% (v/v) Triton X-100; 100 μM H-Gly-Arg-AMC and rhDPP1 ([…]). […] A standard DPP1 inhibitor (vinyl sulfone, see below, or Example 24 from WO2009/074829) was used as a positive control in the assay. Routinely, inhibitors were pre-incubated with rhDPP1 for 30-60 min prior to the addition of the peptide substrate to start the reaction for a further 60 min at 22° C. After that the plates were immediately read in a fluorescence plate reader using the above emission and excitation wavelengths [modified from Kam, C M, Gotz, M G, Koot, G, McGuire, M J, Thiele, D L, Hudig, D & Powers, J C (2004). Arch Biochem Biophys, 427, 123-134 & McGuire, M J, Lipsky, P E & Thiele, D L (1992). Arch Biochem Biophys, 295, 280-288].

Sequence of Recombinant Human (rh) DPP1 (P53634 231-394 limits assumed): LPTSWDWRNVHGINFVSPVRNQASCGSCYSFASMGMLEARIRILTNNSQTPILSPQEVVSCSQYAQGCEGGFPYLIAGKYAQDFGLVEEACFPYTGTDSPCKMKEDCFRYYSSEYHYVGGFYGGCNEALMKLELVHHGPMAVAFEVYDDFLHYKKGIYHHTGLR
Sequence of Recombinant Human (rh) DPP1 (P53634 25-134 limits assumed): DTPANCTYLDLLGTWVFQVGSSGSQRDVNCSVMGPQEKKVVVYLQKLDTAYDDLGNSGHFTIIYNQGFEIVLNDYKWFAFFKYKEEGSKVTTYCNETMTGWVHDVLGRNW
Sequence of Recombinant Human (rh) DPP1 (P53634 395-463 limits assumed): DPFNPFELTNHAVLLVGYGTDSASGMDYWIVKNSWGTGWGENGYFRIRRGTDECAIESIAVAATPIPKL

| IC50 | SMILES |
| --- | --- |
| 1.26 nM | COc1cc(-c2ccc(C[C@@H](C#N)NC(=O)C3(N)CCOCC3)cc2)ccn1 [Example 26, (S)-4-Amino-N-(1-cyano-2-(4-(2-methoxypyridin-4-yl)phenyl)ethyl)tetrahydro-2H-pyran-4-carboxamide] |
| 1.58 nM | N#C[C@H](Cc1ccc(-c2ccc(S(=O)(=O)N3CCOCC3)cc2)cc1)NC(=O)C1(N)CCOCC1 [Example 27, (S)-4-Amino-N-(1-cyano-2-(4′-(morpholinosulfonyl)biphenyl-4-yl)ethyl)tetrahydro-2H-pyran-4-carboxamide trifluoroacetic acid salt] |
| 0.398 nM | CN1C(=O)CSc2cc(-c3ccc(C[C@@H](C#N)NC(=O)C4(N)CCOCC4)cc3)ccc21 [Example 28, (S)-4-Amino-N-(1-cyano-2-(4-(4-methyl-3-oxo-3,4-dihydro-2H-benzo[b][1,4]thiazin-7-yl)phenyl)ethyl)tetrahydro-2H-pyran-4-carboxamide] |
| 0.631 nM | CN1CCN(S(=O)(=O)c2ccc(-c3ccc(C[C@@H](C#N)NC(=O)C4(N)CCOCC4)cc3)cc2)CC1 [Example 29, (S)-4-Amino-N-(1-cyano-2-(4′-(4-methylpiperazin-1-ylsulfonyl)biphenyl-4-yl)ethyl)tetrahydro-2H-pyran-4-carboxamide] |
| 5.01 nM | CN1Cc2ccc(-c3ccc(C[C@@H](C#N)NC(=O)C4(N)CCOCC4)cc3)cc2C1=O [Example 30, (S)-4-Amino-N-(1-cyano-2-(4-(2-methyl-3-oxoisoindolin-5-yl)phenyl)ethyl)tetrahydro-2H-pyran-4-carboxamide trifluoroacetic acid salt] |
| 1.58 nM | CN1Cc2cc(-c3ccc(C[C@@H](C#N)NC(=O)C4(N)CCOCC4)cc3)ccc2C1=O [Example 31, (S)-4-Amino-N-(1-cyano-2-(4-(2-methyl-1-oxoisoindolin-5-yl)phenyl)ethyl)tetrahydro-2H-pyran-4-carboxamide] |
| 5.01 nM | CN1Cc2cc(-c3ccc(C[C@@H](C#N)NC(=O)C4(N)CCOCC4)cc3)cnc2C1=O [Example 32, (S)-4-Amino-N-(1-cyano-2-(4-(6-methyl-7-oxo-6,7-dihydro-5H-pyrrolo[3,4-b]pyridin-3-yl)phenyl)ethyl)tetrahydro-2H-pyran-4-carboxamide] |
| 0.398 nM | N#C[C@H](Cc1ccc(-c2ccc3oc(=O)[nH]c3c2)cc1)NC(=O)C1(N)CCOCC1 [Example 33, (S)-4-Amino-N-(1-cyano-2-(4-(2-oxo-2,3-dihydrobenzo[d]oxazol-5-yl)phenyl)ethyl)tetrahydro-2H-pyran-4-carboxamide trifluoroacetatic acid salt] |
| 1.26 nM | N#C[C@H](Cc1ccc(-c2ccc3c(c2)CS(=O)(=O)C3)cc1)NC(=O)C1(N)CCOCC1 [Example 34, 4-Amino-N-{(1S)-1-cyano-2-[4-(2,2-dioxido-1,3-dihydro-2-benzothiophen-5-yl)phenyl]ethyl}tetrahydro-2H-pyran-4-carboxamide] |
